Results taken from patent US20070135431A1, “INHIBITORS OF HISTONE DEACETYLASE FOR THE TREATMENT OF DISEASE” (KALYPSYS, INC, priority 2005, published 2007).

Experiments:
HDAC = experiment: In vitro HDAC-inhibition assay (Fluor de Lys fluorescent activity assay); type: biochemical; details: HDAC enzyme source (e.g. nuclear extract or immunopurified HDAC complexes), Fluor de Lys substrate, 30 minutes RT
Experimental: 1) In vitro HDAC-inhibition Assay:
This assay measures a compound's ability to inhibit acetyl-lysine deacetylation in vitro and was used as both a primary screening method as well as for IC50 determinations of confirmed inhibitors. The assay is performed in vitro using an HDAC enzyme source (e.g. partially purified nuclear extract or immunopurified HDAC complexes) and a proprietary fluorescent substrate/developer system (HDAC Quantizyme Fluor de Lys Fluorescent Activity Assay, BIOMOL). The assay is run in 1,536-well Greiner white-bottom plates using the following volumes and order of addition: • Step 1: Enzyme (2.5 μL) source added to plate (from refrigerated container) • Step 2: Compounds (50 nL) added with pin transfer device • Step 3: Fluor de Lys (2.5 μL) substrate added, incubate at RT, 30 minutes • Step 4: Developer (5 μL) solution is added (containing TSA), to stop reaction • Step 5: Plate Reader—data collection
The deacetylated fluorophore is excited with 360 nm light and the emitted light (460 nm) is detected on an automated fluorometric plate reader (Aquest, Molecular Devices).

HDAC in cells = experiment: Cellular HDAC inhibition (cellular histone hyperacetylation / cytotoxicity assays; Table 1 only says Cellular IC50); type: cell-based; details: transformed cell lines (e.g. HeLa, A549, MCF-7); cell line not given
Experimental: 2) Cellular Histone Hyperacetylation Assays:
These two secondary assays evaluate a compound's ability to inhibit HDAC in cells by measuring cellular histone acetylation levels. The cytoblot facilitates quantitative EC50 information for cellular HDAC inhibition. Transformed cell lines (e.g. HeLa, A549, MCF-7) are cultured under standard media and culture conditions prior to plating.
Cells (approx. 2,500/well) are allowed to adhere 10-24 hours to wells of a 384-well Greiner PS assay plate in media containing 1-5% serum. Cells are treated with appropriate compound and specific concentrations for 0 to 24 hours. Cells are washed once with PBS (60 μL) and then fixed (95% ethanol, 5% acetic acid or 2% PFA) for 1 minute at RT (30 μL). Cells are blocked with 1% BSA for 1 hour and washed and stained with antibody (e.g. anti-Acetylated Histone H3, Upstate Biotechnology), followed by washing and incubation with an appropriate secondary antibody conjugated to HRP or fluorophore. For luminescence assays, signal is generated using Luminol substrate (Santa Cruz Biotechnology) and detected using an Aquest plate reader (Molecular Devices).
3) Differential Cytotoxicity Assay:
HDAC inhibitors display differential cytotoxicity toward certain transformed cell lines. Cells are cultured according to standard ATCC recommended conditions that are appropriate to each cell type. Compounds were tested for their ability to kill different cell types (normal and transformed) using the ATPlite luminescence ATP detection assay system (Perkin Elmer). Assays are run in either 384-well or 1536-well Greiner PS plates. Cells (30 μL or 5 μL, respectively) are dispensed using either multichannel pipette for 384-well plates, or proprietary Kalypsys bulk liquid dispenser for 1536-well plates. Compounds added using proprietary pin-transfer device (500 nL or 5 nL) and incubated 5 to 30 hours prior to analysis. Luminescence is measured using Aquest plate reader (Molecular Devices).

| SMILES | IC50 (HDAC) [nM] | IC50 (HDAC in cells) [nM] |
| --- | --- | --- |
| CC(=O)SCC(=O)c1ccc(NS(=O)(=O)c2ccc(OCC3CCCN(C)C3)cc2)nc1 (stereo not drawn) [Example 31, Thioacetic acid S-(2-{6-[4-(1-methyl-piperidin-3-ylmethoxy)-benzenesulfonylamino]-pyridin-3-yl}-2-oxo-ethyl) ester] | ≤ 1000 | ≤ 1000 |
| CC(=O)SCC(=O)c1ccc(NS(=O)(=O)c2ccc(OC(C)CN3CCCCC3)cc2)nc1 (stereo not drawn) [Example 32, Thioacetic acid S-(2-{6-[4-(1-methyl-2-piperidin-1-yl-ethoxy)-benzenesulfonylamino]-pyridin-3-yl}-2-oxo-ethyl) ester] | ≤ 1000 | ≤ 1000 |
| CC(=O)SCC(=O)c1ccc(NS(=O)(=O)c2ccc(OCCCN3CCCC3)cc2)nc1 [Example 33, Thioacetic acid S-(2-oxo-2-{6-[4-(3-pyrrolidin-1-yl-propoxy)-benzenesulfonylamino]-pyridin-3-yl}-ethyl) ester] | ≤ 1000 | ≤ 1000 |
